In PubChem BioAssay (NCI):
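Test compounds were applied to cells in 96-well plates for 48 hours at 5 doses. GI50 = concentration required for 50% inhibition of growth. At the TGI there is no net growth.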

Columns and labels:
Test in all cases: NCI tumour cell line growth inhibition, 48 h
[1] = system: OVCAR-5 ovarian
[2] = system: SN12C renal
[3] = system: RXF 393 renal
[4] = system: SF-268 CNS
[5] = system: UACC-62 melanoma
[6] = system: SR leukemia
[7] = system: CCRF-CEM leukemia
[8] = system: NCI-H522 lung
[9] = system: T-47D breast
[10] = system: IGROV1 ovarian
[11] = system: MCF7 breast
[12] = system: OVCAR-3 ovarian
[13] = system: LOX IMVI melanoma
[14] = system: PC-3 prostate
[15] = system: ACHN renal
[16] = system: OVCAR-8 ovarian
[17] = system: SK-OV-3 ovarian
[18] = system: NCI-H23 lung
[19] = system: OVCAR-4 ovarian
[20] = system: SNB-75 CNS
[21] = system: MDA-MB-435
[22] = system: SNB-19 CNS
[23] = system: SK-MEL-5 melanoma
[24] = system: A549 NSCLC
[25] = system: MDA-MB-231 breast
[26] = system: SF-539 CNS
[27] = system: COLO 205 colon
[28] = system: UO-31 renal
[29] = system: HT29 colon
[30] = system: BT-549 breast
[31] = system: RPMI-8226 leukemia
[32] = system: HL-60(TB) leukemia
[33] = system: HCT-15 colon
[34] = system: EKVX NSCLC
[35] = system: HS 578T breast
[36] = system: NCI-H460 lung
[37] = system: TK-10 renal
[38] = system: MALME-3M melanoma
[39] = system: DU-145 prostate
[40] = system: U251 CNS
[41] = system: NCI/ADR-RES ovarian
[42] = system: K-562 leukemia
[43] = system: HOP-92 NSCLC
[44] = system: NCI-H226 lung
[45] = system: HOP-62 NSCLC
[46] = system: 786-0 renal
[47] = system: SK-MEL-28 melanoma
[48] = system: SF-295 CNS
[49] = system: UACC-257 melanoma
[50] = system: HCC-2998 colon
[51] = system: SK-MEL-2 melanoma
[52] = system: KM12 colon
[53] = system: MOLT-4 leukemia
[54] = system: M14 melanoma
[55] = system: SW-620 colon
[56] = system: CAKI-1 renal
[57] = system: HCT-116 colon

Compound: Clc1ccc2c(c1)N(c1ncnc3ccc(-c4cnc5[nH]ccc5c4)cc13)CC2
- GI50 [1]: 0.898 µM
- TGI [1]: 22 µM
- GI50 [2]: 1.95 µM
- TGI [2]: 20 µM
- GI50 [3]: 0.442 µM
- TGI [3]: 12.2 µM
- GI50 [4]: 3.14 µM
- TGI [4]: 24.1 µM
- GI50 [5]: 0.982 µM
- TGI [5]: 21.1 µM
- GI50 [6]: 0.595 µM
- TGI [6]: > 100 µM
- GI50 [7]: 1.71 µM
- TGI [7]: > 100 µM
- GI50 [8]: 0.819 µM
- TGI [8]: 12.5 µM
- GI50 [9]: 0.501 µM
- TGI [9]: 6.48 µM
- GI50 [10]: 0.304 µM
- TGI [10]: 2.27 µM
- GI50 [11]: 0.54 µM
- TGI [11]: > 100 µM
- GI50 [12]: 1.67 µM
- TGI [12]: 20.4 µM
- GI50 [13]: 0.734 µM
- TGI [13]: 10.3 µM
- GI50 [14]: 2.28 µM
- TGI [14]: 23.6 µM
- GI50 [15]: 2.12 µM
- TGI [15]: 28.2 µM
- GI50 [16]: 3.25 µM
- TGI [16]: 29.5 µM
- GI50 [17]: 4.03 µM
- TGI [17]: 61.4 µM
- GI50 [18]: 3.2 µM
- TGI [18]: 52.4 µM
- GI50 [19]: 1.12 µM
- TGI [19]: 16.9 µM
- GI50 [20]: 0.776 µM
- TGI [20]: 21.1 µM
- GI50 [21]: 0.295 µM
- TGI [21]: 1.2 µM
- GI50 [22]: 4.48 µM
- TGI [22]: 35.5 µM
- GI50 [23]: 3.8 µM
- TGI [23]: 26.4 µM
- GI50 [24]: 2.61 µM
- TGI [24]: 17.7 µM
- GI50 [25]: 2.01 µM
- TGI [25]: 19.3 µM
- GI50 [26]: 6.8 µM
- TGI [26]: 48.7 µM
- GI50 [27]: 3.21 µM
- TGI [27]: > 100 µM
- GI50 [28]: 0.484 µM
- TGI [28]: 16.7 µM
- GI50 [29]: 1.03 µM
- TGI [29]: 2.66 µM
- GI50 [30]: 0.949 µM
- TGI [30]: 47.8 µM
- GI50 [31]: 0.766 µM
- TGI [31]: > 100 µM
- GI50 [32]: 1.26 µM
- TGI [32]: > 100 µM
- GI50 [33]: 1.06 µM
- TGI [33]: 12.5 µM
- GI50 [34]: 0.789 µM
- TGI [34]: 34.4 µM
- GI50 [35]: 0.555 µM
- TGI [35]: 16.9 µM
- GI50 [36]: 0.952 µM
- TGI [36]: 12.4 µM
- GI50 [37]: 1.29 µM
- TGI [37]: 14.5 µM
- GI50 [38]: 1.08 µM
- TGI [38]: 19.5 µM
- GI50 [39]: 2.22 µM
- TGI [39]: 19.4 µM
- GI50 [40]: 2.51 µM
- TGI [40]: 10.9 µM
- GI50 [41]: 1.99 µM
- TGI [41]: 69 µM
- GI50 [42]: 0.542 µM
- TGI [42]: > 100 µM
- GI50 [43]: 2.61 µM
- TGI [43]: 31.5 µM
- GI50 [44]: 2.76 µM
- TGI [44]: 22 µM
- GI50 [45]: 2.45 µM
- TGI [45]: 17.4 µM
- GI50 [46]: 1.56 µM
- TGI [46]: 14.5 µM
- GI50 [47]: 10.2 µM
- TGI [47]: 27.7 µM
- GI50 [48]: 0.88 µM
- TGI [48]: 19.7 µM
- GI50 [49]: 14.8 µM
- TGI [49]: 63.2 µM
- GI50 [50]: 11.3 µM
- TGI [50]: 68.9 µM
- GI50 [51]: 2.88 µM
- TGI [51]: 22.8 µM
- GI50 [52]: 1.24 µM
- TGI [52]: 18.6 µM
- GI50 [53]: 0.954 µM
- TGI [53]: > 100 µM
- GI50 [54]: 0.992 µM
- TGI [54]: 11.9 µM
- GI50 [55]: 1.38 µM
- TGI [55]: 14.7 µM
- GI50 [56]: 3 µM
- TGI [56]: 25.7 µM
- GI50 [57]: 1.36 µM
- TGI [57]: 14.7 µM
